# Tests used:
# Format in all cases: cell-based, human
# HeLa cells [1] = assay: Intracellular delivery of fluorescein labelled phosphothioate oligonucleotide, fluorescent microscopy
# Description: HeLa cells (plated one day before the experiment, 2×10^5 cells per well, 6-well plate) were grown on glass microscope slides in 2 ml of RPMI 1640 supplemented with 10% FCS. Before the experiment, the medium was replaced with RPMI 1640 without serum.
# Formation of oligonucleotide-compound (1) complexes was done as follows. 10 μg of phosphothioate oligonucleotide was dissolved in […] of transfection buffer. 16 μg and 50 μg of compound (1) were diluted with transfection buffer to the final volume of 100 μl. The two solutions were mixed together and incubated for 10 min. Oligonucleotide solution without compound (1) was diluted with 100 μl of transfection buffer. The resultant solutions (200 μl per well) were added to the cell cultures (final concentration of oligonucleotide was about 1 μM, compound (1) 8 μM and 25 μM). The complexes were incubated with the cells for 4 hours. The medium was then substituted with a complete growth medium.
# At 4 and 24 hours, cells were washed three times with PBS and fixed with 1% glutaraldehyde solution for 15 min. After fixation, cells were washed three times with PBS and mounted in glycerol mounting solution (10 mM phosphate, 150 mM NaCl, 70% glycerol, pH 7.5). The localization of fluorescein labelled phosphothioate oligonucleotide was determined by fluorescent microscopy, using a Zeiss fluorescent microscope.
# HeLa cells [2] = assay: Transfection of HeLa cells with pCMVL, luciferase assay
# Description: The cells were resuspended in fresh medium and placed either in 24-well plates (5×10^4 cells per well) or in 6-well plates (2-2.5×10^4 cells per well). Just before transfection, the cells were placed in fresh medium with or without 10% FCS. In general, cells were transfected at 50 to 70% confluence. […] Cell debris was removed by centrifugation (14000 rpm for 2 min). Usually, enzyme activity (see below) was determined directly after cell lysis.
# Plasmid DNA (from a stock solution of a concentration of about 1 mg/ml) and cationic lipids (from a stock solution of a concentration 1 to 2 mg/ml) were diluted separately in 1.5 ml Eppendorf tubes with 10 mM Hepes, 0.9% NaCl buffer, pH 7.4, to the final volume of 100 μl. The amount of DNA in typical transfections varied from 1 to 2 μg per 100 μl. The amount of a cationic lipid varied from 0 to 20 μg per 100 μl. Two solutions were mixed together to form a DNA-lipid solution. After incubation for 10 min at room temperature the resultant DNA-lipid solution was added to the cell cultures, growing as described before, and gently mixed. Alternatively, the DNA-lipid solution was diluted with 800 μl (for 24- or 6-well plates) of the appropriate medium (+/−FCS) and mixed. The diluted solution was then overlayed onto the cells, rinsed with the appropriate medium. […] A typical incubation time in the absence of serum was 4 hours. The transfection medium was then substituted with a complete growth medium. In the presence of serum, the transfection medium was usually not replaced and the cells continued to grow in the presence of complexes until the end of experiments (one step transfection).
# Luciferase assay. […] The luciferase assay was performed by adding 5 to 10 μl of cell extract.
# Just before transfection, the medium was removed and cells were supplied with 1 ml fresh medium with or without serum. […] In the absence of serum, the transfection medium was removed after 4 hours, and the cells were supplied with 1 ml fresh serum supplemented medium. […]
# HeLa cells [3] = assay: Intracellular delivery of fluorescein labelled anionic polypeptide, fluorescent microscopy; conditions: 1 μM labelled polyanion in the presence of 25 μM compound (1)
# K562 cells = assay: Transfection of K562 suspension cells with pCMVL, luciferase assay; conditions: K562, presence of serum
# Description: HeLa (CCL2, epitheloid carcinoma, human), COS-7 (CRL 1651, kidney, SV-40 transformed, African green monkey), HT-29 (HTB 38, adenocarcinoma, colon, human), CV-1 (CCL 70, kidney, African green monkey), 818-4 (adenocarcinoma, pancreas, human), H4IIE (CRL 1548; hepatoma, rat), K562 (CCL 243; chronic myelogenous leukemia, human), HL-60 (CCL 240; promyelotic leukemia, human) were grown in 5% CO2 at 37° C. on plastic tissue culture flasks in RPMI 1640 or DMEM with 10% fetal calf serum and supplemented with penicillin at 100 units per ml, streptomycin at 100 μg per ml, 2 mM glutamine and 0.1 μM dexamethasone for H4IIE cells.
# At 24 hours before transfection, the cells were placed in fresh complete growth medium. Just before transfection, the cells were collected, resuspended in fresh medium with or without 10% FCS at 0.25×10^6 cells per ml, and placed in 24-well plates, 2 ml per well.
# The cells were normally harvested 24 hours after transfection (the time of harvesting is an important variable and should be optimized), collected by centrifugation and resuspended in 10 ml of PBS, again centrifuged, and the cell pellet was transferred into a 1.5 ml Eppendorf tube with 1 ml PBS. The cells were centrifuged in the Eppendorf centrifuge (14000 rpm for 20 sec), The resulting cells were lysed in 100 μl of lysis buffer (described above). […]
Molecule,fluorescence intensity at 25 μM compared with 8 μM compound (1) (HeLa cells [1]; 1 μM fluorescein labelled oligonucleotide),"fluorescence of cells (HeLa cells [1]; 1 μM fluorescein labelled oligonucleotide in the presence of compound (1) (8 μM and 25 μM), 4 hours)","fluorescence of cells (HeLa cells [1]; 1 μM fluorescein labelled oligonucleotide in the presence of compound (1), after 24 hours)",transfection in comparison to DOTAP transfection (HeLa cells [2]; absence of serum),transfection in comparison to DOTAP transfection (HeLa cells [2]; presence of serum),time after which the same luciferase activity (4.5×10^4 light units) was observed (HeLa cells [2]; with serum),fluorescence of cells (HeLa cells [3]; after 45 min),fluorescence of cells (HeLa cells [3]; after 24 hours),transfection higher than obtained with DOTAP (K562 cells),"fluorescence of cells (HeLa cells [1]; 1 μM fluorescein labelled oligonucleotide alone, after 4 and 24 hours, without serum)",effect of serum on fluorescence and distribution (HeLa cells [1]; experiments performed in the presence of serum)
"CCCCCCCC/C=C\CCCCCCCC(=O)OCCN(CCOC(=O)CCCCCCC/C=C\CCCCCCCC)C(=O)[C@@H](N)CCCCN.Cl.Cl [Compound 1, L-Lysine-bis(O,O′-oleoyl-β-hydroxyethyl)amide dihydrochloride]",higher,very bright punktate fluorescence in the cytoplasm,very clear punktate fluorescence in the cytoplasm,6 fold,12 fold,3 hours,bright cytoplasmic punktate fluorescence,very bright punktate fluorescence in the cytoplasm,more than 10 fold,,
"5′-ACT TGG ATA CGC ACG-fluorescein-3 [fluorescein labelled oligonucleotide, reference compound]",,,,,,,,,,faint fluorescence,did not change the overall fluorescence and distribution

# — patent US6458381B1, “Lipids and their use, for example, in liposomes” (priority 1996, dated 2002)
